Results reported in the supplement of paper PMC10331698.
± gives the standard deviation of the averaged measurements.

Key:
Experiment in all cases: level (log10 ratio to DMSO vehicle control); higher = higher biomarker level / cell amount than vehicle control
[1] = compound: O=C(O)C(F)(F)C(F)(F)C(F)(F)OC(F)(C(F)(F)F)C(F)(F)F [Perfluoro-4-isopropoxybutanoic acid]; conditions: in DMSO
Protocol: (§1)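 BioMAP Diversity Plus panel of 12 human primary cell co-culture systems (3C, 4H, LPS, SAg, BT, BF4T, BE3C, CASM3C, HDF3CGF, KF3CT, MyoF, Mphg). Compounds were added 1 h before stimulation and left for 24 h (MyoF 48 h; BT 72 h for soluble read-outs or 6 d for IgG). Biomarkers were read by ELISA, cytotoxicity by SRB, PBMC viability and proliferation by Alamar Blue. Each well value was divided by the mean of 8 DMSO control wells on the same plate and log10 transformed; duplicate blinded samples were tested at 4 concentrations.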

Perfluoropropanoic acid = compound: O=C(O)C(F)(F)C(F)(F)F [Perfluoropropanoic acid]; conditions: in DMSO
Protocol: as §1

[2] = compound: O=C(O)C(F)(F)C(F)(F)C(F)(F)C(F)(F)C(F)(F)C(F)(F)C(F)(F)C(F)F [9-H-Perfluorononanoic acid]; conditions: in DMSO
Protocol: as §1

[3] = compound: OCC(F)(F)OC(F)(F)C(F)(F)OC(F)(F)CO [1H,1H,8H,8H-Perfluoro-3,6-dioxaoctane-1,8-diol]; conditions: in DMSO
Protocol: as §1

Perfluoropentanoic acid = compound: O=C(O)C(F)(F)C(F)(F)C(F)(F)C(F)(F)F [Perfluoropentanoic acid]; conditions: in DMSO
Protocol: as §1

[4] = compound: O=C(O)C(F)(F)C(F)(F)C(F)F [4H-Perfluorobutanoic acid]; conditions: in DMSO
Protocol: as §1

[5] = compound: OCCCC(F)(F)C(F)(F)C(F)(F)C(F)(F)C(F)(F)C(F)(F)C(F)(F)F [7:3 Fluorotelomer alcohol]; conditions: 6700 nM; in DMSO
Protocol: as §1

Test System	level (log10) ([1]; 6700 nM)	level (log10) ([1]; 20000 nM)	level (log10) ([1]; 60000 nM)	level (log10) (Perfluoropropanoic acid; 6700 nM)	level (log10) (Perfluoropropanoic acid; 20000 nM)	level (log10) (Perfluoropropanoic acid; 60000 nM)	level (log10) ([2]; 6700 nM)	level (log10) ([2]; 20000 nM)	level (log10) ([2]; 60000 nM)	level (log10) ([3]; 6700 nM)	level (log10) ([3]; 20000 nM)	level (log10) ([3]; 60000 nM)	level (log10) (Perfluoropentanoic acid; 6700 nM)	level (log10) (Perfluoropentanoic acid; 20000 nM)	level (log10) (Perfluoropentanoic acid; 60000 nM)	level (log10) ([4]; 6700 nM)	level (log10) ([4]; 20000 nM)	level (log10) ([4]; 60000 nM)	level (log10) [5]
KF3CT:TIMP-2	-0.0105 ± 0.011	-0.005 ± 0.013	0.004 ± 0.021	0.014 ± 0.062	-0.0115 ± 0.0092	0.0275 ± 0.012	-0.0055 ± 0.03	-0.01 ± 0.014	0.016 ± 0.017	0.0025 ± 0.005	0.005 ± 0.0014	0.0065 ± 0.0092	-0.013 ± 0.037	-0.0065 ± 0.0035	0.017 ± 0.045	0.002 ± 0.031	-0.011 ± 0.016	0.004 ± 0.0099	-0.0005 ± 0.028
BE3C:uPA	-0.001 ± 0.0042	0.0025 ± 0.012	0.0185 ± 0.0064	-0.0165 ± 0.044	0.0015 ± 0.044	0.003 ± 0.041	0.0085 ± 0.0021	0.003 ± 0.014	-0.002 ± 0.0028	-0.01 ± 0.0042	0 ± 0.037	-0.016 ± 0.0057	-0.0115 ± 0.0021	-0.013 ± 0.0057	0.004 ± 0.018	-0.016 ± 0.05	-0.009 ± 0.016	0.0055 ± 0.06	0.0005 ± 0.016
KF3CT:IL-1alpha	0.0225 ± 0.019	0.0165 ± 0.0035	0.014 ± 0.025	-0.013 ± 0.05	-0.0035 ± 0.052	-0.04 ± 0.038	0.006 ± 0.0071	-0.0195 ± 0.012	-0.039 ± 0.035	-0.029 ± 0.045	-0.013 ± 0.014	0.013 ± 0.023	-0.004 ± 0.017	0.004 ± 0.0028	-0.0115 ± 0.021	0.001 ± 0.05	-0.0055 ± 0.005	0.0075 ± 0.06	-0.0135 ± 0.011
CASM3C:SRB	0.0015 ± 0.005	-0.007 ± 0.0071	0.0015 ± 0.012	0.0035 ± 0.00071	-0.0015 ± 0.00071	-0.0015 ± 0.005	0.0045 ± 0.005	0.0035 ± 0.0035	-0.001 ± 0.0057	-0.008 ± 0.0014	-0.003 ± 0.0042	-0.009 ± 0.0057	0.0095 ± 0.0021	-0.008 ± 0.0014	0.004 ± 0.0099	-0.0015 ± 0.0078	-0.002 ± 0.0071	0 ± 0.0099	0.006 ± 0.0028
BE3C:SRB	-0.0035 ± 0.00071	-0.0095 ± 0.00071	0.001 ± 0.0085	-0.0015 ± 0.0021	-0.003	0.0035 ± 0.00071	-0.0075 ± 0.0035	-0.007 ± 0.0057	-0.0105 ± 0.0035	-0.005 ± 0.0085	-0.0015 ± 0.0064	-0.0045 ± 0.012	0.002 ± 0.0085	-0.0035 ± 0.005	0 ± 0.016	-0.003 ± 0.0014	-0.004 ± 0.0099	0.0025 ± 0.0021	-0.0065 ± 0.0092
KF3CT:CXCL8/IL-8	0.0175 ± 0.018	0.0335 ± 0.005	0.043 ± 0.071	-0.0125 ± 0.011	0.0095 ± 0.0092	0.0475 ± 0.03	0.0035 ± 0.015	0.0085 ± 0.0078	0.008 ± 0.0071	0.011 ± 0.021	0.0125 ± 0.028	0.016 ± 0.018	-0.0025 ± 0.019	-0.0035 ± 0.005	0.016 ± 0.0071	0.0025 ± 0.0078	0.01 ± 0.0085	0.017 ± 0.0042	0.0035 ± 0.043
CASM3C:CD142/Tissue Factor	-0.018 ± 0.033	-0.011 ± 0.0042	0.0205 ± 0.025	-0.0995 ± 0.039	-0.0395 ± 0.03	-0.0085 ± 0.039	-0.0025 ± 0.0078	-0.012 ± 0.028	0.006 ± 0.017	-0.014 ± 0.0099	-0.013 ± 0.023	0.0165 ± 0.0064	-0.002 ± 0.0071	-0.013 ± 0.024	-0.0225 ± 0.056	0.0045 ± 0.14	-0.039 ± 0.093	-0.0415 ± 0.037	-0.011 ± 0.016
